Read-outs that look alike come from different tables or passages of the source.
Legend:
[1] = test system: p-IKKa levels in L363 (NIK translocated multiple myeloma) cells; test: Effect of compounds on p-IKKa levels in L363 (NIK translocated multiple myeloma) cells (AlphaLISA SureFire Ultra p-IKKa Ser176/180); type: cell-based, human; details: average if tested more than once, read-out: Assay 2 IC50
Outline: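 Phospho-IKKa (Ser176/180) in lysates quantified by AlphaLISA after 6 h compound exposure, 11-point threefold dilutions, 0.3% DMSO. L363 cells were pre-stimulated overnight and assayed with 250 ng/ml BAFF and 10 μM MG132; % inhibition fitted sigmoidally for IC50, duplicate curves.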

[2] = target: Recombinant Human NF-kappaB-Inducing Kinase (NIK/MAP3K14) (Homo sapiens, UniProt Q99558); test: Inhibition of auto-phosphorylation of recombinant human NIK/MAP3K14 activity (AlphaScreen); type: biochemical; details: 5 μM ATP, 1 nM NIK, average if tested more than once
Recombinant Human NF-kappaB-Inducing Kinase (NIK/MAP3K14), sequence (Q99558 whole entry): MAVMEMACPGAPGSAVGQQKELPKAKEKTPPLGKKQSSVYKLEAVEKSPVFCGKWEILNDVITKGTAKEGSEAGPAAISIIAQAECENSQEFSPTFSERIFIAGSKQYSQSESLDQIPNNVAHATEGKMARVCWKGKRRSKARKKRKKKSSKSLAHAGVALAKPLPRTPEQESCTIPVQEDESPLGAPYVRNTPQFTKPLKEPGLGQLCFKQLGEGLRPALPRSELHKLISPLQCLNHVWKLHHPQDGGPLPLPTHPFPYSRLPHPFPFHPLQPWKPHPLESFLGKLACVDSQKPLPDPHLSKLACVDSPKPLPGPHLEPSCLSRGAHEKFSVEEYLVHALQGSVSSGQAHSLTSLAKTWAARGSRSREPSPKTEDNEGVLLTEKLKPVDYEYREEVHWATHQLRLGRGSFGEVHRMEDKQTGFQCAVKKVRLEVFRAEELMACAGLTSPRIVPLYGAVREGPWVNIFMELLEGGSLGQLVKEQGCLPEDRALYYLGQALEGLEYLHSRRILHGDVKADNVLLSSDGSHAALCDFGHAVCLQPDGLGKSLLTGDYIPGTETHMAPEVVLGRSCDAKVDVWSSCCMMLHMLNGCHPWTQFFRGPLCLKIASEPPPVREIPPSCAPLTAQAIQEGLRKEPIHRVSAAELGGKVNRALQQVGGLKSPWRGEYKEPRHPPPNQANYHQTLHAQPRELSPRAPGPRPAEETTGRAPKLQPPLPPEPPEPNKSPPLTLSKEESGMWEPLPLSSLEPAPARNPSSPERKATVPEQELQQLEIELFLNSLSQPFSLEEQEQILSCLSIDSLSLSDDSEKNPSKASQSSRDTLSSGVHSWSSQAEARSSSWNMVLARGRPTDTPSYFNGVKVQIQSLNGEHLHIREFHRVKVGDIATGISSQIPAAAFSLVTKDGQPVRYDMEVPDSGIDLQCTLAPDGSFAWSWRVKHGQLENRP
Outline: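 AlphaScreen detection of phospho-Ser176/180 after 1 nM GST-NIK auto-phosphorylates for 2 h at 25 °C with 5 μM ATP (50 mM Tris pH 7.5, 0.7% DMSO). IC50s come from sigmoidal curves of % inhibition against log dose, using enzyme-free, ATP-free low controls and full-activity high controls.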

[3] = Homo sapiens, L-363, p-IKKa levels in L363 cells

SMILES	IC50 [1, 3]	IC50 [2]	IC50 ([1]; p-IKKa levels in L363 cells)
CC(Nc1nccc(-c2nc(-c3cc([C@]4(O)CCN(C)C4=O)ccn3)cs2)n1)c1cnn(C)c1 (single isomer, unassigned) [Example 158, (R)-3-hydroxy-1-methyl-3-(2-(2-(2-(((R,S)-1-(1-methyl-1H-pyrazol-4-yl)ethyl)amino)pyrimidin-4-yl)thiazol-4-yl)pyrrolid-4-yl)pyrrolidine-2-one or (S)-3-hydroxy-1-methyl-3-(2-(2-(2-(((R,S)-1-(1-methyl-1H-pyrazol-4-yl)ethyl)amino)pyrimidin-4-yl)thiazol-4-yl)pyrrolid-4-yl)pyrrolidine-2-one]	100 to 500 nM	< 100 nM	
CN1CC[C@@](O)(c2cccc(-c3nc(-c4ccnc(NCc5ncco5)n4)cs3)c2)C1=O [Example 111, (R)-3-hydroxy-1-methyl-3-(3-(4-(2-((oxazol-2-ylmethyl)amino)pyrimidin-4-yl)thiazol-2-yl)phenyl)pyrrolidin-2-one]	> 501 nM	< 100 nM	
CN1CC[C@@](O)(c2cccc(-c3coc(-c4ccnc(Nc5ccn(C)n5)n4)n3)c2)C1=O [Example 4, (R)-3-hydroxy-1-methyl-3-(3-(2-(2-((1-methyl-1H-pyrazol-3-yl)amino)pyrimidin-4-yl)oxazol-4-yl)phenyl)pyrrolidin-2-one]	> 501 nM	< 100 nM	
CC(C)Oc1nn(C)cc1Nc1nccc(-c2csc(-c3cccc([C@]4(O)CCN(C)C4=O)c3)n2)n1 [Example 100, (R)-3-hydroxy-3-(3-(4-(2-((3-isopropoxy-1-methyl-1H-pyrazol-4-yl)amino)pyrimidin-4-yl)thiazol-2-yl)phenyl)-1-methylpyrrolidin-2-one]	< 100 nM	< 100 nM	
CN1CCC(n2cc(Nc3nccc(-c4nc(-c5cccc([C@]6(O)CCN(C)C6=O)c5)cs4)n3)cn2)CC1 [Example 87, (R)-3-hydroxy-1-methyl-3-(3-(2-(2-((1-(1-methylpiperidin-4-yl)-1H-pyrazol-4-yl)amino)pyrimidin-4-yl)thiazol-4-yl)phenyl)pyrrolidin-2-one]	100 to 500 nM	< 100 nM	
CN1CC[C@@](O)(c2cccc(-c3nc(-c4ccnc(Nc5cn(C)nc5OC5CCC5)n4)cs3)c2)C1=O [Example 97, (R)-3-(3-(4-(2-((3-cyclobutoxy-1-methyl-1H-pyrazol-4-yl)amino)pyrimidin-4-yl)thiazol-2-yl)phenyl)-3-hydroxy-1-methylpyrrolidin-2-one]	< 100 nM	< 100 nM	
Cc1nn(C(F)F)cc1Nc1nccc(-c2csc(-c3cccc([C@]4(O)CCN(C)C4=O)c3)n2)n1 [Example 140, (R)-3-(3-(4-(2-((1-(difluoromethyl)-3-methyl-1H-pyrazol-4-yl)amino)pyrimidin-4-yl)thiazol-2-yl)phenyl)-3-hydroxy-1-methylpyrrolidin-2-one]	< 100 nM	< 100 nM	
COc1ncccc1Nc1nccc(-c2csc(-c3cccc([C@]4(O)CCN(C)C4=O)c3)n2)n1 [Example 7, (R)-3-Hydroxy-3-(3-(4-(2-((2-methoxypyridin-3-yl)amino)pyrimidin-4-yl)thiazol-2-yl)phenyl)-1-methylpyrrolidin-2-one]	100 to 500 nM	< 100 nM	
CN1CC[C@@](O)(c2ccnc(-c3ccn(-c4ccnc(Nc5ccn(C)n5)n4)n3)c2)C1=O (racemic) [Example 30, (R,S)-3-Hydroxy-1-methyl-3-(2-(1-(2-((1-methyl-1H-pyrazol-3-yl)amino)pyrimidin-4-yl)-1H-pyrazol-3-yl)pyridin-4-yl)pyrrolidin-2-one]	100 to 500 nM	< 100 nM	
Cc1cc(Nc2nccc(-c3nc(-c4cccc([C@]5(O)CCN(C)C5=O)c4)cs3)n2)n(C)n1 [Example 81, (R)-3-(3-(2-(2-((1,3-dimethyl-1H-pyrazol-5-yl)amino)pyrimidin-4-yl)thiazol-4-yl)phenyl)-3-hydroxy-1-methylpyrrolidin-2-one]	> 501 nM	100 to 500 nM	
CN1CC[C@@](O)(c2cccc(-c3csc(-c4ccnc(Nc5ccnn5C)n4)n3)c2)C1=O [Example 5, (R)-3-hydroxy-1-methyl-3-(3-(2-(2-((1-methyl-1H-pyrazol-5-yl)amino)pyrimidin-4-yl)thiazol-4-yl)phenyl)pyrrolidin-2-one]	< 100 nM	< 100 nM	
C[C@H](Nc1nccc(-c2nc(-c3cc([C@]4(O)CCN(C)C4=O)ccn3)cs2)n1)c1ccn(C)n1 (single isomer, unassigned) [Example 156, (R)-3-hydroxy-1-methyl-3-(2-(2-(2-(((S)-1-(1-methyl-1H-pyrazol-3-yl)ethyl)amino)pyrimidin-4-yl)thiazol-4-yl)pyridin-4-yl)pyrrolidin-2-one or (S)-3-hydroxy-1-methyl-3-(2-(2-(2-(((S)-1-(1-methyl-1H-pyrazol-3-yl)ethyl)amino)pyrimidin-4-yl)thiazol-4-yl)pyridin-4-yl)pyrrolidin-2-one]	100 to 500 nM	< 100 nM	
CN1CC[C@@](O)(c2cccc(-c3nc(-c4ccnc(Nc5ccn(C6CC6)n5)n4)cs3)c2)C1=O [Example 259, (R)-3-(3-(4-(2-((1-Cyclopropyl-1H-pyrazol-3-yl)amino)pyrimidin-4-yl)thiazol-2-yl)phenyl)-3-hydroxy-1-methylpyrrolidin-2-one]	100 to 500 nM	< 100 nM	
CN1CC[C@@](O)(c2cccc(-c3nc(-c4ccnc(N)n4)cs3)c2)C1=O [Example 6, (R)-3-(3-(4-(2-Aminopyrimidin-4-yl)thiazol-2-yl)phenyl)-3-hydroxy-1-methylpyrrolidin-2-one]	> 501 nM	100 to 500 nM	
CN1CCC(O)(c2ccnc(-c3nc(-c4ccnc(Nc5ccn(C)n5)n4)cs3)c2)C1=O (single isomer, unassigned) [Example 33, 3-hydroxy-1-methyl-3-(2-(4-(2-((1-methyl-1H-pyrazol-3-yl)amino)pyrimidin-4-yl)thiazol-2-yl)pyridin-4-yl)pyrrolidin-2-one]		> 501 nM	> 501 nM
Cc1c(Nc2nccc(-c3csc(-c4cccc([C@]5(O)CCN(C)C5=O)c4)n3)n2)ncn1C [Example 178]	> 501 nM	> 501 nM	
C[C@@H](Nc1nccc(-c2csc(-c3cccc([C@]4(O)CCN(C)C4=O)c3)n2)n1)c1cncn1C (single isomer, unassigned) [Example 134]	> 501 nM	> 501 nM	
CC(Nc1nccc(-c2nc(-c3cccc(C4(O)CCN(C)C4=O)c3)cs2)n1)c1cnn(C)c1 (single isomer, unassigned) [Example 39]		< 100 nM	< 100 nM
C[C@@H](Nc1nccc(-c2csc(-c3cccc([C@]4(O)CCN(C)C4=O)c3)n2)n1)c1ccccn1 [Example 185]	> 501 nM	< 100 nM	
CN1CC[C@@](O)(c2cccc(-c3nc(-c4ccnc(N[C@H]5CCCc6cn[nH]c65)n4)cs3)c2)C1=O (single isomer, unassigned) [Example 136]	> 501 nM	100 to 500 nM	
CC(Nc1nccc(-c2csc(-c3cccc([C@]4(O)CCN(C)C4=O)c3)n2)n1)C(=O)N1CCN(C)CC1 (stereo partly drawn) [Example 229]	> 501 nM	100 to 500 nM	
CN1CC[C@@](O)(c2cccc(-c3nc(-c4ccnc(NCc5cnccn5)n4)cs3)c2)C1=O [Example 194]	> 501 nM	100 to 500 nM	
CN1CC[C@@](O)(c2cccc(-c3nc(-c4ccnc(Nc5ccn(C)n5)n4)co3)c2)C1=O [Example 1, (R)-3-hydroxy-1-methyl-3-(3-(4-(2-((1-methyl-1H-pyrazol-3-yl)amino)pyrimidin-4-yl)oxazol-2-yl)phenyl)pyrrolidin-2-one]	100 to 500 nM	< 100 nM	
CN1CC[C@@](O)(c2cccc(-c3nc(-c4ccnc(Nc5nc(C(F)(F)F)cs5)n4)cs3)c2)C1=O [Example 248]	100 to 500 nM	< 100 nM	
CN1CC[C@@](O)(c2cccc(-c3ccn(-c4ccnc(NC5COC5)n4)n3)c2)C1=O [Example 132, (R)-3-hydroxy-1-methyl-3-(3-(1-(2-(oxetan-3-ylamino)pyrimidin-4-yl)-1H-pyrazol-3-yl)phenyl)pyrrolidin-2-one]	100 to 500 nM	< 100 nM	
C[C@H](Nc1nccc(-c2csc(-c3cccc([C@]4(O)CCN(C)C4=O)c3)n2)n1)c1cncn1C (single isomer, unassigned) [Example 133]	> 501 nM	< 100 nM	
CN1CC[C@@](O)(c2cccc(-c3nc(-c4ccnc(Nc5cnn(CC(F)F)c5)n4)cs3)c2)C1=O [Example 141, (R)-3-(3-(4-(2-((1-(2,2-difluoroethyl)-1H-pyrazol-4-yl)amino)pyrimidin-4-yl)thiazol-2-yl)phenyl)-3-hydroxy-1-methylpyrrolidin-2-one]	< 100 nM	< 100 nM	
CN1CC[C@@](O)(c2cccc(-c3nc(-c4ccnc(Nc5cnn6ccccc56)n4)cs3)c2)C1=O [Example 264, (R)-3-Hydroxy-1-methyl-3-(3-(4-(2-(pyrazolo[1,5-a]pyridin-3-ylamino)pyrimidin-4-yl)thiazol-2-yl)phenyl)pyrrolidin-2-one]	< 100 nM	< 100 nM	
CN1C(=O)[C@](O)(c2cncc(-c3csc(-c4ccnc(Nc5ccn(C)n5)n4)n3)c2)C[C@H]1C(F)(F)F (single isomer, unassigned) [Example 61]	100 to 500 nM	< 100 nM	
CN1CC[C@@](O)(c2cccc(-c3nc(-c4ccnc(NCc5ccncn5)n4)cs3)c2)C1=O [Example 217]	> 501 nM	100 to 500 nM	

From patent US20250304567A1, “PYRROLIDIONE DERIVATIVES AS INHIBITORS OF NF KAPPA B INDUCING KINASE” (priority 2022, published 2025)
